Here are results for one compound from article PMC7806715, “Discovery of small molecules targeting the tandem tudor domain of the epigenetic factor UHRF1 using fragment-based ligand discovery” (Scientific Reports, 2021).

Experiment [1] concerns the target T1, His6-TTD-PHD (aa 123–366) wild type vs. H3K9me3 peptide (Homo sapiens, UniProt Q96T88).
T1 construct: made in house; host or cells: Rosetta (DE3) E. coli, pMCSG7
T1 sequence (Q96T88 123-366): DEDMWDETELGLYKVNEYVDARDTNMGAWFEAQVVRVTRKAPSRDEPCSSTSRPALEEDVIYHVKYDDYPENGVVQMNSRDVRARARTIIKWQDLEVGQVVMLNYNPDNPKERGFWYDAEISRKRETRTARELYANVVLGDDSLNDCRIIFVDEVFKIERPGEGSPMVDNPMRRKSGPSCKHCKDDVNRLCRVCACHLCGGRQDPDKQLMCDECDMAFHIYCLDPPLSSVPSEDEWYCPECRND
The experiment in a line: TR-FRET assay: His6-TTD-PHD wild type binding to H3K9me3 peptide. The format is biochemical. As to the method:
To test this hypothesis, we generated two TTD-PHD mutants: (1) S298D, which mimics phosphorylation at Ser298 and (2) RR295/296AA, which prevents Arg295 and Arg296 of the TTD-PHD linker from contacting the Arg binding cavity of TTD. […] The fragment screen was carried out on low volume 384-well white plates (Corning 4512) and the assay was performed at room temperature. The TR-FRET reagent mix contained 200 nM of biotinylated-H3K9me3 peptide (Anaspec), 250 nM of His6-TTD, 25 nM of streptavidin-d2 (CisBio), and 1 × anti-6His-Tb cryptate Gold (Cisbio) in TR-FRET buffer (50 mM sodium phosphate, pH 7, 150 mM NaCl, 1 mM DTT, and 0.1% Triton-X-100). During the screen, 5 μl of TR-FRET reagent mix was dispensed into each well, and 100 nl of chemical fragments stock (10 mM in DMSO) was added to each well by pintool using Tecan Freedom Evo liquid handler to make the final compound concentration 196 μM. After 1 h of incubation, the fluorescent signals at 665 nm and 620 nm of each plate were measured by the Tecan Infinite M1000 plate reader (excitation 340 nm, 60 μs lag time, and 500 μs integration time) and the TR-FRET signal was calculated by the ratio of 665 nm/620 nm fluorescent signal. For the fragment screen, on seven of the library plates there were 32-wells of DMSO control, while there were 8-wells of DMSO control in the last plate. The TR-FRET assays for the interactions between His6-TTD-PHD and His6-UHRF1-FL binding to biotinylated-H3K9me3 (1-20) peptide were similar to the assay for His6-TTD. The only difference was that the final concentration of […] assay, while the final concentration of His6-UHRF1-FL was 200 nM and biotin-H3K9me3 peptide was 100 nM for the His6-UHRF1-FL TR-FRET assay. The buffer pH was 7.5 for the His6-TTD-PHD and His6-UHRF1-FL assays. The His6-TTD and His6-TTD-PHD proteins (30 μM) were treated with PKA (P2645, Sigma) at 0.5 U/μl at 30 °C for 1 h in the reaction buffer (50 mM Tris, pH 7.5, 10 mM MgCl2, 0.02% Triton-X-100, 1 mM ATP, 1 mM DTT). The untreated sample was incubated at 30 °C for 1 h in same buffer condition without the addition of PKA. […]
Background: TR-FRET usually uses a lanthanide donor and a delayed reading to cut background.

In experiment [2] the target is T2, TTD-PHD S298D mutant vs. H3K9me3 peptide (Homo sapiens, UniProt Q96T88, S298D).
T2 construct: made in house; host or cells: E. coli (host printed for TTD-PHD in general: Rosetta (DE3))
T2 sequence (Q96T88 123-366 S298D): T1 sequence (Q96T88 123-366) with S176D
The experiment in a line: TR-FRET assay: TTD-PHD S298D mutant binding to H3K9me3 peptide. Format: biochemical. The note with it: 2.5 mM 2,4-lutidine. As to the method: The fragment screen was carried out on low volume 384-well white plates (Corning 4512) and the assay was performed at room temperature. […] After 1 h of incubation, the fluorescent signals at 665 nm and 620 nm of each plate were measured by the Tecan Infinite M1000 plate reader (excitation 340 nm, 60 μs lag time, and 500 μs integration time) and the TR-FRET signal was calculated by the ratio of 665 nm/620 nm fluorescent signal. For the fragment screen, on seven of the library plates there were 32-wells of DMSO control, while there were 8-wells of DMSO control in the last plate. […] The only difference was that the final concentration of […] assay, while the final concentration of His6-UHRF1-FL was 200 nM and biotin-H3K9me3 peptide was 100 nM for the His6-UHRF1-FL TR-FRET assay. The buffer pH was 7.5 for the His6-TTD-PHD and His6-UHRF1-FL assays.

Molecules are shown by their SMILES. Changes are numbered by the printed parent chain.

Consider `Cc1ccnc(C)c1` [2,4-lutidine], for which the “inhibition of His6-TTD-PHD interaction with H3K9me3 peptide (in words)” value in experiment [1] (dose-response, side by side with His6-TTD) is listed as “only weakly inhibits”. In experiment [1] (protein treated with PKA and ATP 1 h at 30 °C), the “effect of PKA treatment of His6-TTD-PHD on inhibition of H3K9me3 peptide binding (in words)” value was “improves the ability”. Also, the “inhibition of binding to H3K9me3 peptide” value in experiment [1] (wild type TTD-PHD, 2.5 mM 2,4-lutidine) stood at 7.9%; in experiment [2] it was 44.5%.
